Where no end group is shown, it is not given here.
Assays:
MVF-PD-L1 peptides = test: Immunogenicity in rabbits: ELISA antibody titers of sera vs the immunogen; format: in vivo, New Zealand White rabbits; conditions: after the second boost
Procedure: Immunogenicity of MVF-PD-L1 B-cell epitopes. New Zealand White rabbits were immunized with 1 mg of each MVF-peptide immunogens dissolved in dd H2O emulsified (1:1) in Montanide ISA 720 vehicle (Seppic) with 333 μg of N-acetylglucosamine-3yl-acetyl-1-alanyl-d-isoglutamine (nor-MDP). Rabbits were boosted with the same doses at 3-week's intervals. Blood was collected via the central auricular artery in rabbits. Blood was collected weekly (1Y+3, 2Y+1, 2Y+2,2Y+3, 3Y+1, 3Y+2 and sera tested for antibody titers by ELISA using the immunogens MVF-PD-L1 peptides. Sera (terminal) from rabbit (3Y+3) immunized with MVF-PD-1 peptide immunogens were tested individually versus the immunogen by ELISA. 200 ng/well peptide were used in duplicates to coat the ELISA plates. Titers are defined as the highest dilution of sera with an absorbance value of 0.2 after subtracting the blank.
For each peptide, vaccine antibodies were raised using New Zealand white rabbits purchased from Charles River Laboratories (Wilmington, MA, USA). […] Antibody titers were monitored by direct ELISA against the peptide immunogen, the peptide B cell epitope, and an acetylated version of the B-cell epitope. […] Peptide vaccine antibodies were purified by affinity chromatography using a protein A/G column and the concentration was measured by Coomassie protein assay. […]

[1] = Mouse antibody isotyping assay; format: in vivo, Balb/c mice
Procedure: We also analyzed the different isotypes of antibodies being generated by vaccination.
Antibody isotypes (i.e. IgA, IgM, IgG1, IgG2a, IgG2b, IgG3) were determined using the Mouse Typer Isotyping Kit (BIO-RAD, Hercules, CA). Briefly, wells of a 96-well assay plate were coated with 200 ng peptide antigen in ddH2O, and incubated at 4° C. overnight. The plate was washed with washing buffer (0.05% Tween-20 and 1% horse sera in PBS). The plate was then blocked with 1% BSA in PBS at room temperature for 1 hour. 100 ul of diluted mice sera was added to each well for 2 hours and after washing the wells, 100 μl ready to use rabbit anti-mouse subclasses antibodies were added to each well respectively and incubated at room temperature for another 2 hours. The wells were washed again, 100 μl of 1/3000 dilution of goat anti-rabbit conjugated to HRP antibody (BIO-RAD, Hercules, CA) was added to each well and incubated for 1 hour at room temperature in dark. The plate was then washed and 50 μl prepared substrate solution was added to each well. The reaction was stopped with 25 μl 5% SDS stopping buffer. Absorbance at 415 nm was determined using an ELISA plate reader. Dilutions of each sera samples were determined by the ELISA titers shown in absorbance of 0.4 or higher after subtracting the background.

Sequence: KLLSLIKGVIVHRLEGVEGPSLVTSEHELTCQAEGYPKAE (KLLSLIKGVIVHRLEGVEGPSLVTSEHELTCQAEGYPKAE-NH2) [PD-L1(130)]
- antibody titers (MVF-PD-L1 peptides): 64,000
- isotypes of antibodies elicited in the mice ([1]; experiment 1 (CT26 WT)): predominantly of the IgG1 class
- isotypes of antibodies elicited in the mice ([1]; experiment 2 (CT26/HER-2)): predominantly of the IgG1 class

Sequence: KLLSLIKGVIVHRLEGVEGPSLYRCMISYGGADYKRITVK (KLLSLIKGVIVHRLEGVEGPSLYRCMISYGGADYKRITVK-NH2) [PD-L1(95)]
- antibody titers (MVF-PD-L1 peptides): 64,000

From US12589143B2, “Human anti-PD-L1 peptide vaccines and methods of their use” (priority 2019, dated 2026)
